SMILES strings stand for the structures. Values after ≈ are worked out from the molar mass of the structure shown.

The conditions of this data set: buffer; pH 7.4; 200.0 µM.
`Cc1cccc(C)c1NC(=S)N1CCC(c2ccccc2)C1` (centres undefined) displayed a kinetic solubility of 34.1 µg/mL (≈ 110 µM).
Take `COc1ccc(/C=C2\C(=O)NCC(=O)N2C)cc1`: the solubility (kinetic) came to 11.4 µg/mL (≈ 46.3 µM).
For `CC(C)c1ccc(OCC(=O)Nc2ccncc2)cc1` the value was 38.8 µg/mL (≈ 144 µM).
Consider `CCOC(=O)c1[nH]c(=O)[nH]c1CNc1ccccc1C#N`, for which the solubility (kinetic) is > 42.9 µg/mL.
For `CNC(=S)Nc1cccc(-c2cnc3ccccc3n2)c1` the value was 43.7 µg/mL (≈ 148 µM); for `Cc1ccc(S(=O)(=O)Nc2ccccc2C(O)c2ccccc2)cc1` (centres undefined), 6.1 µg/mL (≈ 17.3 µM); for `Cn1cc(C(=O)C(=O)NCCc2ccccc2)c2ccccc21`, 0.6 µg/mL (≈ 1.96 µM).
For `CCOC(=O)Nc1ccc2nc3n(c(=O)c2c1)CCCCC3`, the solubility (kinetic) came out at 9.1 µg/mL (≈ 30.2 µM).
The figure for `O=C1c2ccccc2NC(c2ccc(F)cc2)N1Cc1ccccc1` (centres undefined) is 1.4 µg/mL (≈ 4.21 µM).
In the case of `CCOc1ccc(NC(=O)CCS(=O)(=O)c2ccc(C)cc2)cc1`, the solubility (kinetic) is > 52.1 µg/mL.
Consider `CN1CC(=O)N(CC(=O)Nc2ccc3c(c2)CCC3)C1=O`, for which the solubility (kinetic) was > 43.1 µg/mL.
On to `CN1CCN(c2ccc(CNC(=O)c3cc4ccccc4o3)cc2)CC1`, for which the kinetic solubility was 49.5 µg/mL (≈ 142 µM).
`Cc1ccc(S(=O)(=O)Nc2cc3c4c(c2)CC(=O)N4CCC3)cc1`: the kinetic solubility stood at 8.6 µg/mL (≈ 25.1 µM).
For `Nc1ccccc1SCC(O)Cn1ccc2ccccc21` (centres undefined) the value was > 44.8 µg/mL; for `CC(C)=CCN1CCN(Cc2cccc3c2OCO3)CC1CCO` (centres undefined), 36.5 µg/mL (≈ 110 µM); for `O=C1CN(C(=O)COC(=O)CCS(=O)(=O)c2ccccc2Cl)c2ccccc2N1`, > 65.5 µg/mL.
On to `COc1ccc(NC2CCCN(C(=O)c3ccncc3)C2)cc1` (centres undefined), for which the solubility (kinetic) was > 46.7 µg/mL.
For `COc1ccc(-c2nc(N)c(C#N)c(-c3cccnc3)c2C)cc1` the value was 2.8 µg/mL (≈ 8.85 µM); for `CC(=O)N/C(=N/c1nc(C)cc(C)n1)Nc1cc(C)cc(C)c1`, 3.8 µg/mL (≈ 12.2 µM).
For `CCOC(=O)c1cc(-c2csc(-c3ccc(C(C)(C)C)cc3)n2)on1` the value was 0.4 µg/mL (≈ 1.12 µM); for `CCC(CC)NC(=O)Nc1ccccc1C(F)(F)F`, 10.8 µg/mL (≈ 39.4 µM); for `O=C(Nc1ccc(Cl)cc1)C1CCCC1`, 15.8 µg/mL (≈ 70.6 µM).
The figure for `Cc1cc(C)c(S(=O)(=O)NCCCn2ccnc2)cc1C` is > 46.1 µg/mL; for `O=C(NCc1ccccc1Cl)C1CC(=O)N(Cc2ccccc2)C1` (centres undefined) it is > 51.4 µg/mL.
On to `COc1ccccc1C(=O)COC(=O)COc1ccc(C#N)cc1`, for which the solubility (kinetic) was > 48.8 µg/mL.
Regarding `CC(OC(=O)C1CC1)C(=O)Nc1ncc(Cl)cc1Cl` (centres undefined), the solubility (kinetic) was > 45.5 µg/mL.
Consider `CCOC(=O)c1csc(NC(=O)c2cc(-c3ccccn3)nc3ccccc23)n1`, for which the kinetic solubility was determined as 1 µg/mL (≈ 2.47 µM).
Compound `Cc1ccc(NC(=O)Cc2c(F)cccc2Cl)cc1S(=O)(=O)N1CCOCC1` yielded a kinetic solubility of 2 µg/mL (≈ 4.68 µM).
For `CCc1noc(C)c1C(=O)OCC(=O)N1CCc2ccccc21` the value was 4.6 µg/mL (≈ 14.6 µM).
The figure for `CC(=O)Nc1cccc(-c2csc(Nc3ncccn3)n2)c1` is 3.5 µg/mL (≈ 11.2 µM).
For `CCCCC(=O)N=c1sc2c(OC)ccc(OC)c2n1C` the value was < 0.3 µg/mL; for `O=C(NNC(=S)NC(=O)c1ccc(F)cc1)c1ccncc1`, > 47.7 µg/mL.
As to `CNS(=O)(=O)c1cc(Nc2ncnc3sccc23)ccc1C`, the solubility (kinetic) worked out at 2.5 µg/mL (≈ 7.48 µM).
`COc1nc(SCC(=O)Nc2ccccc2Cl)nc(N(C)C)n1`: the solubility (kinetic) came out at 20.4 µg/mL (≈ 57.7 µM).
For `Cc1cccnc1NC(=O)Cn1c(=O)oc2ccccc21` the value was 41.2 µg/mL (≈ 145 µM).
Take `C/C=C/C(=O)OCc1csc(CC(=O)Nc2ccccc2C)n1`: the solubility (kinetic) was > 49.6 µg/mL.
For the compound `CC(=O)N(Cc1ccc(Cl)cc1)c1cnccn1`, the kinetic solubility was > 39.3 µg/mL.
As to `O=C(COC(=O)c1ccc[nH]c1=O)Nc1ccc(N2CCCCC2)cc1`, the kinetic solubility is > 53.3 µg/mL.
The figure for `O=S(=O)(c1ccc2c(c1)CCN2)N1CCCC1` is 36.1 µg/mL (≈ 143 µM); for `CCOP(=O)(OCC)C(NC(=O)CC(C)C)C(Cl)(Cl)Cl` (centres undefined) it is > 55.3 µg/mL; for `CC1CCCCC1NC(=O)Cn1cc([N+](=O)[O-])ccc1=O` (centres undefined) it is 29.1 µg/mL (≈ 99.2 µM).
`CCC(C)Nc1nc(N)c([N+](=O)[O-])c(NCCO)n1` (centres undefined) came in with a kinetic solubility of 39.6 µg/mL (≈ 147 µM).
With `OCCN(CC#CCC(O)(c1ccccc1)C1CCCC1)CCO` (centres undefined), the solubility (kinetic) was > 49.7 µg/mL.
Regarding `Cc1ccsc1C(=O)OCC(=O)NC1CCS(=O)(=O)C1` (centres undefined), the solubility (kinetic) was > 47.6 µg/mL.
Regarding `O=C(CCc1ccc(S(=O)(=O)N2CCOCC2)cc1)Nc1c(F)cccc1F`, the solubility (kinetic) was > 61.6 µg/mL.
As to `CCN(CC)C(=O)c1c(C)[nH]c(=S)c(C#N)c1-c1ccco1`, the solubility (kinetic) was > 47.3 µg/mL.
For the compound `O=c1[nH]c(=O)n(C2OC(CO)C(O)C2O)cc1Br` (centres undefined), the kinetic solubility was > 48.5 µg/mL.
For `O=C(Nc1cccc(-c2cscn2)c1)C1CCN(Cc2ccccn2)CC1` the value was > 56.8 µg/mL.
As for `CCOC(=O)N1CCc2c(sc(NC(=O)CN3CCOCC3)c2C#N)C1`, the kinetic solubility came out at 48.5 µg/mL (≈ 128 µM).
Regarding `CCCC(=O)NNC(=O)CCC(=O)Nc1ccccc1Cl`, the solubility (kinetic) is > 46.8 µg/mL.
Consider `OCC1CCCCN1C(=S)NCc1ccco1` (centres undefined), for which the kinetic solubility came out at 32.1 µg/mL (≈ 126 µM).
`CCCOc1ccc(C2=CSC3=NCCN23)cc1Cl` returned a solubility (kinetic) of 40.4 µg/mL (≈ 137 µM).
The figure for `CC(=O)Nc1ccc(N2C(=O)CC(Sc3nccc(C)n3)C2=O)cc1` (centres undefined) is > 53.5 µg/mL; for `CC(O)C(NC=C1C(=O)OC(C)(C)OC1=O)C(=O)O` (centres undefined) it is 39.4 µg/mL (≈ 144 µM); for `COc1ccc(NC(=O)/C(C#N)=C/c2ccc[nH]2)c(OC)c1` it is 0.3 µg/mL (≈ 1.01 µM).
For the compound `COc1cc(Oc2nc(C(F)(F)F)nc3ccccc23)ccc1C=O`, the kinetic solubility was < 0.4 µg/mL.
Consider `COc1cc(C#N)c(NC(=O)CN2CCC(C(N)=O)CC2)cc1OC`, for which the kinetic solubility was > 52 µg/mL.
The compound `CC(NC(=O)COC(=O)c1cccs1)c1ccccc1` (centres undefined) returned a kinetic solubility of 11.9 µg/mL (≈ 41.1 µM).
For `CNC(=O)CN1C(=O)NC2(CCc3ccccc3C2)C1=O` (centres undefined) the value was > 43.1 µg/mL; for `Cc1ccc(S(=O)(=O)Nc2ccc(O)c3cccnc23)cc1`, 19 µg/mL (≈ 60.4 µM).
The figure for `O=[N+]([O-])c1ccc2nc(-c3ccccc3)oc2c1` is 0.4 µg/mL (≈ 1.67 µM); for `Cc1cc(C)c(NC(=O)C(=O)NCc2ccco2)c(C)c1` it is 4.1 µg/mL (≈ 14.3 µM); for `COC(=O)c1ccc(COc2ccc(C)cc2[N+](=O)[O-])o1` it is 3.3 µg/mL (≈ 11.3 µM).
Take `CCOC(=O)/C(=C\c1ccc(OC)c(OC)c1)C(=O)c1cccnc1`: the kinetic solubility was > 51.2 µg/mL.
The figure for `O=C1CC(NC(=O)c2ccc(Cl)cc2)C(=O)N1` (centres undefined) is > 37.9 µg/mL.
With `CC(C)(C)NCC(O)COc1cccc2c1C[C@H](O)[C@H](O)C2` (some centres undefined), the solubility (kinetic) is > 46.4 µg/mL.
The figure for `CCc1cc(SC#N)ccc1N` is 20.7 µg/mL (≈ 116 µM).
`Cc1ccc2nc(NCc3ccccc3)c(C#N)cc2c1` had a solubility (kinetic) of 2.8 µg/mL (≈ 10.2 µM).
`CCCNC(=O)NC(=O)CSc1cccc(C(F)(F)F)c1` came in with a solubility (kinetic) of 12.9 µg/mL (≈ 40.3 µM).
For `CCC(C)(C)c1ccc(Oc2ccc(N)cc2)cc1` the value was 4.2 µg/mL (≈ 16.4 µM).
The figure for `COc1cccc(C(=O)Nc2cccc3c2ccc2cccn23)c1` is 1.3 µg/mL (≈ 4.11 µM); for `CCCCS(=O)(=O)N1CCCC(C(=O)Oc2ccc(Cl)cc2)C1` (centres undefined) it is < 0.8 µg/mL.
As to `CN1CCc2c(sc3nc(NCCO)n(-c4cccc(Cl)c4)c(=O)c23)C1`, the solubility (kinetic) stood at 58.3 µg/mL (≈ 149 µM).
The figure for `Cc1ccc(CNC(=O)CSCc2ccccc2)cc1` is 19.7 µg/mL (≈ 69 µM); for `Cc1c(C(=O)N2C[C@@H](C)O[C@@H](C)C2)oc2c(F)cccc12` it is > 43.7 µg/mL.
`CCc1ccc(NC(=O)Cn2cc([N+](=O)[O-])nc2C)cc1` came in with a solubility (kinetic) of 6.7 µg/mL (≈ 23.2 µM).
The figure for `Cc1cc(=O)[nH]c(=O)n1Cc1ccccc1` is 19.2 µg/mL (≈ 88.8 µM); for `O=c1ncn(-c2cccc(Cl)c2)c2ccccc12` it is 38 µg/mL (≈ 148 µM).
For the compound `Cc1ccc(S(=O)(=O)CC(=O)N2CC(C)OC(C)C2)cc1` (centres undefined), the solubility (kinetic) is > 46.7 µg/mL.
In the case of `CCN(CC)S(=O)(=O)c1cccc(C(=O)NC2=NCCS2)c1`, the kinetic solubility amounted to 34.8 µg/mL (≈ 102 µM).
Turning to `CC(=O)Nc1ccc(S(=O)(=O)Nc2ccn(Cc3ccccc3Cl)n2)cc1`, the kinetic solubility is > 60.7 µg/mL.
The figure for `Cc1ccccc1NC(=O)C1CCN(C(=O)NC2CCCCC2)CC1` is > 51.5 µg/mL; for `CSc1c(CC(=O)Nc2ccccc2)n(C)c2ccccc12` it is 0.4 µg/mL (≈ 1.29 µM); for `COCCCNc1nc2nonc2nc1N1CCN2CCCC2C1` (centres undefined) it is > 50 µg/mL.
In turn, `Cc1ccccc1C(=O)NCCCNC(=O)c1cnccn1` showed a kinetic solubility of 40.1 µg/mL (≈ 134 µM).
For `CCc1nnc(NC(=O)CSc2nnc3nc(C)cc(C)n23)s1` the value was > 52.4 µg/mL; for `Cc1ccc(S(=O)(=O)N2CCOCC2)cc1NC(=O)COC(=O)/C=C/c1ccc(F)cc1`, 10.3 µg/mL (≈ 22.3 µM); for `CCOC(=O)CC(N)c1cccc([N+](=O)[O-])c1.Cl` (centres undefined), > 41.2 µg/mL.
The figure for `Cc1ccc(S(=O)(=O)NC(CC(=O)O)c2ccc(F)cc2)cc1` (centres undefined) is 34.8 µg/mL (≈ 103 µM); for `O=C1CSC(c2ccccc2)N1CCc1ccccc1` (centres undefined) it is 29.6 µg/mL (≈ 104 µM); for `COc1ccc(OC)c(NC(=O)NCCc2cccc(Cl)c2)c1` it is 1.9 µg/mL (≈ 5.67 µM).
The figure for `O=Cc1c(C(=O)O)n(Cc2ccccc2F)c2ccccc12` is > 44.6 µg/mL.
The compound `O=C1NC(=Nc2ccc(O)cc2)S/C1=C\C=C\c1ccco1` yielded a solubility (kinetic) of 4.7 µg/mL (≈ 15 µM).
Compound `Cc1ccc(O)c(NC(=O)C2CCCCC2)c1` had a kinetic solubility of 33.3 µg/mL (≈ 143 µM).
The figure for `O=C(OCC(=O)N1CCOCC1)c1cccc(F)c1` is > 40.1 µg/mL; for `COc1ccc(C(=O)NCCSc2ccccc2C)cc1` it is 23.7 µg/mL (≈ 78.6 µM).
For `CC(C)S(=O)(=O)c1csc(NC(=O)Nc2cccc([N+](=O)[O-])c2)c1Cl` the value was < 0.3 µg/mL; for `Cc1c(Cl)cccc1NC(=O)CNC(=O)c1ccco1`, 38.2 µg/mL (≈ 130 µM).
As to `Cc1nc(Cl)c(N=Cc2cccc([N+](=O)[O-])c2)c(Cl)n1`, the solubility (kinetic) is > 46.7 µg/mL.
`Cc1cccc(C)c1NC(=S)NCc1ccccc1`: the solubility (kinetic) is > 40.6 µg/mL.
Take `O=S(=O)(Nc1ccon1)c1cc(Cl)ccc1Cl`: the solubility (kinetic) came out at 43.3 µg/mL (≈ 148 µM).
`CCc1onc(C)c1C(=O)Nc1ccc2c(c1)OCO2`: the kinetic solubility is > 41.1 µg/mL.
Turning to `Cc1cc(CSc2ccccc2C(=O)O)on1`, the solubility (kinetic) was > 37.4 µg/mL.
For `CN(Cc1ccccc1)c1ncnc2sccc12` the value was 32.4 µg/mL (≈ 127 µM).

A word on the kinetic solubility: it is the concentration staying in solution when a stock, usually in DMSO, is diluted into the medium.

Source of the values: PubChem BioAssay AID1996.
